# Data published in patent US20180264088A1, “USE OF CREATINE KINASE AND DERIVED PEPTIDES THEREOF TO RELIEVE PAIN” (CENTRE NATIONAL DE LA RECHERCHE SCIENTIFIQUE, priority 2015, published 2018).
# Legend:
# [1] = system: cuffed mice C57Bl6/J; experiment: Intrathecal injection of AI-25, mechanical nociceptive threshold of cuffed mice; format: in vivo; settings: 10 nmoles
# Description: (§1) Experiments and surgeries were performed as previously described.
# (§2) The functional property of peptide AI-25 (10 nmoles) was evaluated through injections in the spinal cord of 8 mice C57B16/J (intrathecal injection, volume 5 μl). The aim was to study the consequences of these injections on mechanical nociceptive threshold of cuffed mice using the calibrated forceps test.
# (§3) The mechanical threshold for hind paw withdrawal was determined using Von Frey filaments as previously described.
# [2] = system: C57Bl/6J mice; experiment: Intrathecal injection, mechanical nociceptive thresholds of healthy mice, von Frey filaments; format: in vivo; settings: for analgesia (mechanical nociceptive threshold vs control): right leg, two-ways ANOVA
# Description: (§4) Experiments were performed on adult male C57Bl/6J mice (6 weeks old, Charles River, L'Arbresle, France). Animals were housed in groups of 3, under standard conditions (room temperature: 22° C.; 12/12-hour light-dark cycle) with ad libitum access to food and water. All experiments were conducted according to the recommendations of the European Committee Council Direction of Sep. 22, 2010 (2010/63/EU).
# The functional properties of peptides P1 (20 nmoles) and P4 (10 nmoles) were evaluated through injections in the spinal cord of 4 groups of 6 mice C57B16/J (intrathecal injection, volume of 5 μl). […] Mice were previously placed under gaseous anesthesia with isoflurane (volatile anesthetic agent) with a minimum alveolar concentration (MAC) of 1.34%. A 27-gauge needle connected to a syringe was inserted between the vertebrae L5 and L6, in the subarachnoid space. Isoflurane induced a general anesthesia with respiratory depression in mice.
# (§5) The mechanical threshold for hind paw withdrawal was determined using Von Frey hairs. Mice were placed in clear plexiglass boxes on an elevated mesh screen. Von Frey filaments (Bioseb, Chaville, France) were applied to the plantar surface of each hind paw in a series of ascending forces (0.4 g-15 g). Filaments were tested 5 times per paw, and the mechanical threshold was defined as 3 or more withdrawals out of the 5 trials. Lithium chloride and naloxone (Sigma-Aldrich, St. Louis, U.S.A.) were diluted in NaCl 0.9% (w/v).
# [3] = ELISA on peptide-coated plate: affinity for morphine; settings: ligand 300 μM to 0.1 μM
# [4] = molecular target: CK-M (Homo sapiens, UniProt P06732); experiment: Inhibitory effect of morphine on ATP formation by creatine kinase; format: biochemical; settings: ratio 3n/1n (FIG. 2)
# [5] = system: C57Bl/6J neuropathic mice; experiment: Intraperitoneal injection, mechanical nociceptive thresholds of neuropathic (cuffed) mice, von Frey filaments; format: in vivo; settings: 10 nmoles; for effect on mechanical thresholds of Sham animals: Sham mice
# Description: as §4, with “5,” for “3,”
# (§6) All surgeries were done under aseptic conditions and ketamine/xylazine anaesthesia (ketamine: 17 mg/ml, xylazine: 2.5 mg/ml, i.p., 4 ml/kg, i.p.; Centravet, Taden, France). The right sciatic nerve was cuffed with a section of polyethylene tubing (cuff group) as previously described [Mosconi et Kruger, Pain, 64(1): 37-57, 1996] [7].
# as §5, with “trials.” for “trials. Lithium chloride and naloxone (Sigma-Aldrich, St. Louis, U.S.A.) were diluted in NaCl 0.9% (w/v).”
# [6] = system: cuffed mice C57Bl6/J; experiment: Intrathecal injection of KN-50, mechanical nociceptive threshold of cuffed mice; format: in vivo; settings: 33 nmoles, vs saline solution
# Description: as §1
# as §2, with “KN-50 (33” for “AI-25 (10”, “nmoles) and NaCl 0.9%” for “nmoles)”, “mice, in comparison of saline solution.” for “mice using the calibrated forceps test.”
# as §3
# [7] = system: cuffed rats (neuropathic); experiment: Intrathecal injection, cuff neuropathic rat model, calibrated forceps test; format: in vivo; settings: 10 nmoles
# Description: as §4, with “Wistar at” for “C57Bl/6J mice”, “(2010/63/EU). Procedures were positively evaluated by the regional ethical committee, and experiments were conducted with an official authorization for animal experimentation from the French Department of Agriculture (license 67-116 to P.P.).” for “(2010/63/EU).”
# as §6, with “[7]. Sham-operated mice underwent the same surgical procedure as cuffed animals without implantation of the cuff (sham group).” for “[7].”
# The functional property of peptide P4 (10 nmoles) was evaluated through injections in the spinal cord of 1 groups of 3 rats (intrathecal injection, volume of 5 μl). The aim was to study the consequences of these injections on mechanic nociceptive threshold of cuffed animals in comparison of the sham group (control), using the calibrated forceps test. Rats were previously placed under gaseous anesthesia with isoflurane (volatile anesthetic agent) with a minimum alveolar concentration (MAC) of 1.34%. A 27-gauge needle connected to a syringe was inserted between the vertebrae L5 and L6, in the subarachnoid space.
# The mechanical response was evaluated using digital calibrated forceps (Bioseb, Chaville, France) according to company's recommendations, before and 1 to 6 hours after intrathecal injections.
# [8] = intrathecal, 20 nmoles, healthy mice
# [9] = intrathecal, 10 nmoles, healthy mice
# [10] = neuropathic mice, comparison to baseline
# CK-M, sequence (P06732 whole entry, species assumed): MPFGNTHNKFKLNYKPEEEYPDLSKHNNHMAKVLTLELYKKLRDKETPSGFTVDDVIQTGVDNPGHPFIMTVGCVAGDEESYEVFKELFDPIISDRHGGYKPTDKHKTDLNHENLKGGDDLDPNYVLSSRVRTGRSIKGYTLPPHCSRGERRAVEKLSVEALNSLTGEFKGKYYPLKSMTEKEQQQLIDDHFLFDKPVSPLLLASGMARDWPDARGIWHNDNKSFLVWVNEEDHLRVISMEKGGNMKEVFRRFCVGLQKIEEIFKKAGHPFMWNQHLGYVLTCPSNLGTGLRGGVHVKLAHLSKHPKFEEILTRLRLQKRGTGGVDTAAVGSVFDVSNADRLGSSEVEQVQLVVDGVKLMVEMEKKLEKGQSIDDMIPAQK
molecule,measurement,setting,value
"peptide AI-25: peptide derived from P4, amino acids 214-238 (SEQ ID NO: 4) of mouse creatine kinase B","neuropathic pain, ipsilateral paw mechanical threshold",[1],reversed the neuropathic pain
same,non-cuffed contralateral paw mechanical threshold,[1],did not significantly affect
same,"neuropathic pain, ipsilateral paw mechanical threshold",[1]; listed as amino acids 214-238,present analgesic activity
peptide P1: peptide consisting of amino acids 1-75 (SEQ ID NO: 2) from the mouse CK-B sequence SEQ ID NO: 1,values of von Frey / sensitivity towards mechanical stimulation,[2]; [8],close or equal to cut-off
same,analgesia (mechanical nociceptive threshold vs control),[2]; [8],induced a significant analgesia
same,values of von Frey / sensitivity towards mechanical stimulation,"[2]; intrathecal, 20 nmoles, healthy mice, listed as amino acids 1-75",almost complete insensitivity
same,occlusion of analgesic activity by morphine,[2]; peptide 20 nmoles injected in presence of 10 nmoles of morphine,occlusion of analgesic activity
same,affinity for morphine,[3],showed an affinity
"CN1CC[C@]23c4c5ccc(O)c4O[C@H]2[C@@H](O)C=C[C@H]3[C@H]1C5 [morphine, reference compound]",inhibition of enzymatic activity of CK (production of ATP from phosphocreatine),[4],~18%
same,analgesia on right leg 4 hours after injection,"[2]; intrathecal, 10 nmoles, healthy mice, Holm-Sidak",significant analgesia
same,analgesia (mechanical nociceptive threshold vs control),[2]; [9],induced a significant analgesia
same,effect on mechanical thresholds of Sham animals,[5],No significant effect
same,"analgesic effect, ipsilateral paw, at 3 h",[5]; [10],significant analgesic effect
"peptide KN-50: peptide derived from P4, amino acids 196-246 (SEQ ID NO: 5) of mouse creatine kinase B","neuropathic pain, ipsilateral paw mechanical threshold",[6],reversed the neuropathic pain
same,non cuffed contralateral paw mechanical threshold,[6],did not affect
same,"neuropathic pain, ipsilateral paw mechanical threshold",[6]; listed as amino acids 196-246,present analgesic activity
peptide P4: peptide consisting of amino acids 184-258 (SEQ ID NO: 3) of the mouse CK-B sequence SEQ ID NO: 1,values of von Frey / sensitivity towards mechanical stimulation,[2]; [9],close or equal to cut-off
same,analgesia (mechanical nociceptive threshold vs control),[2]; [9],induced a significant analgesia
same,values of von Frey / sensitivity towards mechanical stimulation,"[2]; intrathecal, 10 nmoles, healthy mice, listed as amino acids 184-258",almost complete insensitivity
same,occlusion of analgesic activity by morphine,[2]; peptide 10 nmoles injected in presence of 10 nmoles of morphine,not observed
same,"neuropathic pain, ipsilateral paw mechanical threshold",[7]; cuffed rats,reverses the neuropathic pain
same,non-cuffed contralateral paw mechanical threshold,[7]; cuffed rats,did not affect
same,duration of analgesia,"[7]; cuffed rats, ipsilateral paw",at least 6 h
same,"neuropathic pain, ipsilateral paw mechanical threshold","[7]; cuffed rats, listed as peptide 4",reversed the neuropathic pain
same,mechanical threshold of the sham group,[7]; sham rats,did not affect
same,effect on mechanical thresholds of Sham animals,[5],No significant effect
same,basic mechanical nociceptive thresholds of the contralateral hind legs,[5]; neuropathic mice,do not modify
same,"analgesic effect, ipsilateral paw, at 3 h",[5]; [10],significant analgesic effect
same,"analgesic effect, ipsilateral paw, at 4 h post injection",[5]; [10],significant analgesic effect
same,affinity for morphine,[3],showed an affinity
